Results: PubChem BioAssay AID1963828 (Molecular Pharmacology Branch, DTP, NCI, 2024)

System: 991263-137-R1-J2-PDC complex spheroid viability
Test: Anticancer human tumor 991263-137-R1-J2-PDC patient-derived colon adenocarcinoma cell line growth inhibition [POLQ]
Conditions: for IC50: curve of first compound; for viability, T/C: stronger effect = lower value
Outline: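 Complex spheroid viability model combining PDC tumour cells with endothelial (HUVEC) and MSC stromal cells. Novobiocin, ART-558 or RP6685 were tested singly and in combination with standard and investigational anticancer drugs. Each was titrated in half-log steps from near clinical Cmax, or from 10 microM where Cmax was unknown.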

[1] = second compound 0.0316 µM, first compound 0.0316 µM
[2] = second compound 0.0316 µM, first compound 0.1 µM
[3] = second compound 0.0316 µM, first compound 0.316 µM
[4] = second compound 0.0316 µM, first compound 1 µM
[5] = second compound 0.0316 µM, first compound 3.16 µM
[6] = second compound 0.0316 µM, first compound 10 µM
[7] = second compound 0.1 µM, first compound 0.0316 µM
[8] = second compound 0.1 µM, first compound 0.1 µM
[9] = second compound 0.1 µM, first compound 0.316 µM
[10] = second compound 0.1 µM, first compound 1 µM
[11] = second compound 0.1 µM, first compound 3.16 µM
[12] = second compound 0.1 µM, first compound 10 µM
[13] = second compound 0.316 µM, first compound 0.0316 µM
[14] = second compound 0.316 µM, first compound 0.1 µM
[15] = second compound 0.316 µM, first compound 0.316 µM
[16] = second compound 0.316 µM, first compound 1 µM
[17] = second compound 0.316 µM, first compound 3.16 µM
[18] = second compound 0.316 µM, first compound 10 µM
[19] = second compound 1 µM, first compound 0.0316 µM
[20] = second compound 1 µM, first compound 0.1 µM
[21] = second compound 1 µM, first compound 0.316 µM
[22] = second compound 1 µM, first compound 1 µM
[23] = second compound 1 µM, first compound 3.16 µM
[24] = second compound 1 µM, first compound 10 µM
[25] = second compound 3.16 µM, first compound 0.0316 µM
[26] = second compound 3.16 µM, first compound 0.1 µM
[27] = second compound 3.16 µM, first compound 0.316 µM
[28] = second compound 3.16 µM, first compound 1 µM
[29] = second compound 3.16 µM, first compound 3.16 µM
[30] = second compound 3.16 µM, first compound 10 µM
[31] = second compound 10 µM, first compound 0.0316 µM
[32] = second compound 10 µM, first compound 0.1 µM
[33] = second compound 10 µM, first compound 0.316 µM
[34] = second compound 10 µM, first compound 1 µM
[35] = second compound 10 µM, first compound 3.16 µM
[36] = second compound 10 µM, first compound 10 µM
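Note: spheroids exposed to compounds for 7 days before readout.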
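Throughout, for viability, T/C: 100% = DMSO vehicle control viability.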

CC1COCCN1c1cc(C2(O)CC3CCC(C2)O3)c2cnn(-c3ccn[nH]3)c2n1 (stereo unspecified) + Cc1cccc(N(C)C(=O)C2C(O)CCN2c2nc(C)cc(C(F)(F)F)c2C#N)c1
IC50 (second compound 0.0316 µM): 1.24 µM | IC50 (second compound 0.1 µM): 2.18 µM | IC50 (second compound 0.316 µM): 1.64 µM | IC50 (second compound 1 µM): 3.12 µM | IC50 (second compound 3.16 µM): 2.57 µM | IC50 (second compound 10 µM): 0.959 µM | viability, T/C [1]: 107% | viability, T/C [2]: 84.8% | viability, T/C [3]: 67.5% | viability, T/C [4]: 55.8% | viability, T/C [5]: 35.8% | viability, T/C [6]: 30.1% | viability, T/C [7]: 110% | viability, T/C [8]: 103% | viability, T/C [9]: 82.3% | viability, T/C [10]: 61.1% | viability, T/C [11]: 46.4% | viability, T/C [12]: 29.2% | viability, T/C [13]: 107% | viability, T/C [14]: 110% | viability, T/C [15]: 75.9% | viability, T/C [16]: 59.2% | viability, T/C [17]: 42.5% | viability, T/C [18]: 28.3% | viability, T/C [19]: 92% | viability, T/C [20]: 98.2% | viability, T/C [21]: 87.1% | viability, T/C [22]: 67.4% | viability, T/C [23]: 52.5% | viability, T/C [24]: 28.6% | viability, T/C [25]: 93.4% | viability, T/C [26]: 85.5% | viability, T/C [27]: 74.4% | viability, T/C [28]: 61.6% | viability, T/C [29]: 47.4% | viability, T/C [30]: 34.6% | viability, T/C [31]: 90.9% | viability, T/C [32]: 98.8% | viability, T/C [33]: 75.2% | viability, T/C [34]: 48.2% | viability, T/C [35]: 37.7% | viability, T/C [36]: 25.9%

CCc1cc2c(N3CCc4c(cc(Cn5ccnc5)cc4-c4cn(C)nc4C(F)(F)F)C3=O)cc(C)nc2c(OC)n1 + Cc1cccc(N(C)C(=O)C2C(O)CCN2c2nc(C)cc(C(F)(F)F)c2C#N)c1
IC50 (second compound 0.0316 µM): > 10 µM | IC50 (second compound 0.1 µM): > 10 µM | IC50 (second compound 0.316 µM): > 10 µM | IC50 (second compound 1 µM): > 10 µM | IC50 (second compound 3.16 µM): > 10 µM | IC50 (second compound 10 µM): > 10 µM | viability, T/C [1]: 99.4% | viability, T/C [2]: 111% | viability, T/C [3]: 95.7% | viability, T/C [4]: 97.9% | viability, T/C [5]: 96.7% | viability, T/C [6]: 89.5% | viability, T/C [7]: 109% | viability, T/C [8]: 107% | viability, T/C [9]: 96.2% | viability, T/C [10]: 87.9% | viability, T/C [11]: 98% | viability, T/C [12]: 99.8% | viability, T/C [13]: 113% | viability, T/C [14]: 93.8% | viability, T/C [15]: 101% | viability, T/C [16]: 91.4% | viability, T/C [17]: 107% | viability, T/C [18]: 88.9% | viability, T/C [19]: 100% | viability, T/C [20]: 101% | viability, T/C [21]: 84.5% | viability, T/C [22]: 98.3% | viability, T/C [23]: 104% | viability, T/C [24]: 82% | viability, T/C [25]: 101% | viability, T/C [26]: 96% | viability, T/C [27]: 106% | viability, T/C [28]: 111% | viability, T/C [29]: 95.3% | viability, T/C [30]: 96.7% | viability, T/C [31]: 95.7% | viability, T/C [32]: 105% | viability, T/C [33]: 90.9% | viability, T/C [34]: 90.7% | viability, T/C [35]: 84.5% | viability, T/C [36]: 92.1%

COc1cc2cc(C(=O)CCC(=O)O)sc2cc1OC + Cc1cccc(N(C)C(=O)C2C(O)CCN2c2nc(C)cc(C(F)(F)F)c2C#N)c1
IC50 (second compound 0.0316 µM): > 10 µM | IC50 (second compound 0.1 µM): > 10 µM | IC50 (second compound 0.316 µM): > 10 µM | IC50 (second compound 1 µM): > 10 µM | IC50 (second compound 3.16 µM): > 10 µM | IC50 (second compound 10 µM): > 10 µM | viability, T/C [1]: 100% | viability, T/C [2]: 103% | viability, T/C [3]: 99.8% | viability, T/C [4]: 95.8% | viability, T/C [5]: 102% | viability, T/C [6]: 81.8% | viability, T/C [7]: 91.5% | viability, T/C [8]: 88.8% | viability, T/C [9]: 95.4% | viability, T/C [10]: 93.6% | viability, T/C [11]: 95.7% | viability, T/C [12]: 77% | viability, T/C [13]: 102% | viability, T/C [14]: 92.8% | viability, T/C [15]: 101% | viability, T/C [16]: 102% | viability, T/C [17]: 97.4% | viability, T/C [18]: 71.2% | viability, T/C [19]: 91.2% | viability, T/C [20]: 103% | viability, T/C [21]: 91.5% | viability, T/C [22]: 88% | viability, T/C [23]: 108% | viability, T/C [24]: 74.2% | viability, T/C [25]: 87.8% | viability, T/C [26]: 94.1% | viability, T/C [27]: 90.3% | viability, T/C [28]: 110% | viability, T/C [29]: 87.2% | viability, T/C [30]: 80% | viability, T/C [31]: 86% | viability, T/C [32]: 97.5% | viability, T/C [33]: 97.9% | viability, T/C [34]: 101% | viability, T/C [35]: 102% | viability, T/C [36]: 81%
